{
  "source": "patent US11091498B2",
  "about": "“Topoisomerase poisons” (Rutgers, The State University of New Jersey, priority 2016, dated 2021)",
  "system": "KBH5.0 (a variant that overexpresses BCRP)",
  "experiment": "Test B. Efflux Assay: relative cytotoxicity, parent KB3-1 vs KBH5.0",
  "type": "cell-based",
  "conditions": "relative cytotoxicity between parent KB3-1 and variant KBH5.0 cell lines",
  "procedure": "The ability of a compound described herein to be actively transported can be determined using pharmacological models that are well known in the art, for example, using a model like test B described below.\nThe cytotoxicity of the representative compounds of the invention were also tested against cell line KB3-1 (parent cell line), KBV-1 (a variant that overexpresses efflux transporter MDR1) and KBH5.0 (a variant that overexpresses BCRP). Differences in the relative cytotoxicity between the parent and variant cell lines may be indicative of a compound that is a substrate for an efflux transporter. […] Accordingly, compounds of the invention may be useful to treat tumors that are resistant to other anticancer agents, including anticancer agents that are susceptible to efflux by BCRP (e.g. anthracyclines, mitoxantrone, topotecan, irinotecan, bisanthrone, doxorubicin, daunorubicin, and epirubin.",
  "data": [
    {"smiles": "COc1cc2c(=O)n(CCN(C)C(=O)C3CCN(C)CC3)c3c4cc5c(cc4ncc3c2cc1OC)OCO5", "note": "[Example 2]", "values": [
      {"measurement": "substrate for efflux transporter BCRP", "value": "not a substrate for BCRP"}
    ]}
  ]
}
